From patent US12268694B2, “Combination pharmaceutical agents as RSV inhibitors” (Enanta Pharmaceuticals, Inc., priority 2017, dated 2025)
Read-outs that look alike come from different tables or passages of the source.

Columns and labels:
[1] = system: genotype A, "Long" strain RSV; assay: RSV-A assay: CPE protection in HEp-2 cells, ATPlite readout; assay type: cell-based, human respiratory syncytial virus
Procedure, shortened: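 EC50 derives from ATPlite luminescence after 5-day culture of RSV Long-infected (MOI 0.1) HEp-2 cells, seeded 8,000/well, exposed to duplicate 2-fold compound series. CC50 comes from an identical plate receiving medium instead of virus.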

HEp-2 cells = assay: Cytotoxicity in parallel to the RSV-A assay (no virus), ATPlite readout; assay type: cell-based, human
Experimental: Following extensive parameter testing, the final assay is run as follows: HEp-2 cells are seeded into the inner 60 wells of a 96-well plate at 8,000 cells per well in a volume of 50 μL using Growth Media (DMEM without phenol red, 1% L-Glut, 1% Penn/Strep, 1% nonessential amino acids, 10% heat-inactivated FBS). 2-fold serial dilutions of control and test compounds are added to the wells in duplicate in a total volume of 25 μL. Viral stock is then added to the wells at a multiplicity of infection (MOI) of 0.1 in a volume of 25 μL, bringing the total volume of each well to 100 μL. The MOI is calculated using the PFU/mL, or TCID50 if unavailable. Each 96-well plate has a control column of 6 wells with cells and virus but no compound (negative control, max CPE), a column with cells but no compound or virus (positive control, minimum CPE), and a column with no cells or virus or compound (background plate/reagent control). The control wells with cells but no virus are given an additional 25 μL of growth media containing an equal quantity of sucrose as those wells receiving the viral stock in order to keep consistent in media and volume conditions. The outer wells of the plate are filled with 125 μL of moat media (DMEM, 1% Penn/Strep) to act as a thermal and evaporative moat around the test wells. Following a 5-day incubation period, the plates are read using ATPlite (50 μL added per well), which quantifies the amount of ATP (a measure of cell health) present in each well. Assay plates are read using the Envision luminometer. In parallel, cytotoxicity is examined on an additional 96-well plate treated in an identical manner, but substituting the 25 μL of viral stock for 25 μL of growth media. […] EC50 ranges are as follows: A <0.4 μM; B 0.4-0.8 μM; C >0.8 μM and CC50 ranges are as follows: A >50 μM; B 10-50 μM; C <10 μM.

[2] = system: RSV genotype B, strain 9320; assay: RSV-B assay: A549 cells infected with RSV-B, qPCR or ATPlite readout; assay type: cell-based; details: human respiratory syncytial virus, A549, 144 h, read-out: Human RSV-B EC50
From the text: HEp-2 cells, (originally derived from tumors grown in irradiated-cortisonised weanling rats that had been injected with epidermoid carcinoma tissue from a person's larynx, but later found to be indistinguishable from HeLa cells by PCR DNA analysis), were used for the culturing of genotype B, strain 9320. Flasks were inoculated with RSV-B and viral stocks were collected once cytopathic effect (CPE) was greater than […]. Viral stocks in 25% sucrose media were snap frozen using liquid nitrogen to increase viral stability. Viral stock titers were quantified by tissue culture infectious dose 50% (TCID50) using 8,000 cells per well and 5-fold viral dilutions across a 96-well plate, cultured for 4 days. Viral stock titers were also quantified by a plaque forming unit assay, as described elsewhere.
The assay is run as follows: A549 cells (originally derived through explant culture from a person's carcinomatous lung tissue) are seeded into the inner 60 wells of a 96-well plate at 3,000 cells per well in a volume of 50 μL using A549 growth media (F-12K Media, 1% Penn/Strep, 1% nonessential amino acids, 10% heat-inactivated FBS). 2-fold serial dilutions of control and test compounds are added to the wells in duplicate in a total volume of 25 μL. Viral stock is then added to the wells at a multiplicity of infection (MOI) of 0.5 in a volume of 25 μL, bringing the total volume of each well to 100 μL. The MOI is calculated using the PFU/mL, or TCID50 if unavailable. Each 96-well plate has a control column of 6 wells with cells and virus but no compound (negative control, max CPE), a column with cells but no compound or virus (positive control, minimum CPE), and a column with no cells or virus or compound (background plate/reagent control). The control wells with cells but no virus are given an additional 25 μL of growth media containing an equal quantity of sucrose as those wells receiving the viral stock in order to keep consistent in media and volume conditions. The outer wells of the plate are filled with 125 μL of moat media (DMEM, 1% Penn/Strep) to act as a thermal and evaporative moat around the test wells. 6 days post infection, the plates are read using qPCR or ATP lite (50 μL added per well), which quantifies the amount of ATP (a measure of cell health) present in each well. Assay plates treated with APTlite are read using the Envision luminometer. […] EC50 ranges are as follows: A <0.4 μM; B 0.4-0.8 μM; C >0.8 μM.

[3] = human respiratory syncytial virus, HEp-2, read-out: Human RSV-A (“Long” strain) EC50

SMILES	EC50 [1, 3] [µM]	CC50 (HEp-2 cells) [µM]	EC50 ([1]; HEp-2 cells, RSV-A Long strain, ATPlite readout, read-out: Human RSV-A (“Long” strain) EC50) [µM]	EC50 [2] [µM]
O=C1Nc2ccccc2C(c2ccccc2)=NC1Nc1nnc(-c2ccncn2)o1 (stereo not shown) [Example 63]	> 0.8	> 50		
COCc1cccc(-c2nnc(NC3N=C(c4ccccc4)c4ccccc4NC3=O)o2)n1 (stereo not shown) [Example 64]	> 0.8	> 50		
Cn1nccc1-c1nnc(NC2N=C(c3ccccc3)c3ccccc3NC2=O)o1 (stereo not shown) [Example 65]	> 0.8	> 50		
Cn1cc(-c2nnc(NC3N=C(c4ccccc4)c4ccccc4NC3=O)o2)cn1 (stereo not shown) [Example 66]	0.4 to 0.8	> 50		
Cn1ccnc1-c1nnc(NC2N=C(c3ccccc3)c3ccccc3NC2=O)o1 (stereo not shown) [Example 67]	> 0.8	> 50		
Cn1cnc(-c2nnc(NC3N=C(c4ccccc4)c4ccccc4NC3=O)o2)c1 (stereo not shown) [Example 68]	> 0.8	> 50		
O=C1Nc2ccccc2C(c2ccccc2)=NC1Nc1nnc(-c2nccs2)o1 (stereo not shown) [Example 69]	> 0.8	> 50		
O=C1Nc2ccccc2C(c2ccccc2)=NC1Nc1nnc(-c2ncco2)o1 (stereo not shown) [Example 70]	> 0.8	> 50		
Cc1ccc(-c2nnc(NC3N=C(c4ccccc4)c4ccccc4NC3=O)o2)o1 (stereo not shown) [Example 71]	> 0.8	> 50		
COCc1ccc(-c2nnc(NC3N=C(c4ccccc4)c4ccccc4NC3=O)o2)o1 (stereo not shown) [Example 72]	> 0.8	> 50		
CN(C)Cc1ccc(-c2nnc(NC3N=C(c4ccccc4)c4ccccc4NC3=O)o2)o1 (stereo not shown) [Example 73]	> 0.8	> 50		
Cc1cc(-c2nnc(NC3N=C(c4ccccc4)c4ccccc4NC3=O)o2)on1 (stereo not shown) [Example 74]	> 0.8	> 50		
O=C1Nc2ccccc2C(c2ccccc2)=NC1Nc1nnc(-c2cnco2)o1 (stereo not shown) [Example 75]	> 0.8	> 50		
O=C1Nc2ccccc2C(c2ccccc2)=NC1Nc1nnc(-c2cncs2)o1 (stereo not shown) [Example 76]	> 0.8	> 50		
O=C1Nc2ccccc2C(c2ccccc2)=NC1Nc1nnc(-c2cscn2)o1 (stereo not shown) [Example 77]	0.4 to 0.8	> 50		
O=C1Nc2ccccc2C(c2ccccc2)=NC1Nc1nnco1 (stereo not shown) [Example 79]	> 0.8	> 50		
O=C1Nc2ccccc2C(c2ccccc2)=NC1Nc1nnc(-c2ccc(F)cc2)s1 (stereo not shown) [Example 80]	> 0.8	> 50		
O=C1Nc2ccccc2C(c2ccccc2)=NC1Nc1nnc(-c2ccccc2)s1 (stereo not shown) [Example 81]	> 0.8	> 50		
N#Cc1ccc(-c2nnc(NC3N=C(c4ccccc4)c4ccccc4NC3=O)s2)cc1 (stereo not shown) [Example 82]	0.4 to 0.8	> 50		
O=C1Nc2ccccc2C(c2ccccc2)=NC1Nc1nnc(-c2ccncc2)s1 (stereo not shown) [Example 83]	> 0.8	> 50		
O=C1Nc2ccccc2C(c2ccccc2)=NC1Nc1ncc(-c2ccccc2)o1 (stereo not shown) [Example 84]	> 0.8	10 to 50		

SMILES	EC50 [1, 3] [µM]	CC50 (HEp-2 cells) [µM]	EC50 ([1]; HEp-2 cells, RSV-A Long strain, ATPlite readout, read-out: Human RSV-A (“Long” strain) EC50) [µM]	EC50 [2] [µM]
O=C1Nc2ccccc2C(c2ccccc2)=NC1Nc1nnc(-c2ccccc2)[nH]1 (stereo not shown) [Example 86]	> 0.8	> 50		
O=C1Nc2ccccc2C(c2ccccc2)=NC1Nc1nc(-c2ccccc2)ns1 (stereo not shown) [Example 87]	> 0.8	10 to 50		
O=C1Nc2ccccc2C(c2ccccc2)=NC1Nc1nc(N2CCOCC2)ns1 (stereo not shown) [Example 88]	> 0.8	10 to 50		
O=C1Nc2ccccc2C(c2ccccc2)=NC1Nc1nc(-c2ccccc2)no1 (stereo not shown) [Example 89]		10 to 50	> 0.8	
O=C1Nc2ccccc2C(c2ccccc2)=NC1Nc1nc(-c2ccccc2)cs1 (stereo not shown) [Example 90]	> 0.8	< 10		
O=C1Nc2ccccc2C(c2ccccc2)=NC1Nc1cc(-c2ccccc2)ncn1 (stereo not shown) [Example 92]	> 0.8	10 to 50		
O=C1Nc2ccccc2C(c2ccccc2)=NC1Nc1cc(N2CCOCC2)ncn1 (stereo not shown) [Example 93]	> 0.8	10 to 50		
O=C1Nc2ccccc2C(c2ccccc2)=NC1Nc1cc(Oc2ccccc2)ncn1 (stereo not shown) [Example 94]	> 0.8	10 to 50		
O=C1Nc2ccccc2C(c2ccccc2)=NC1Nc1ccnc(-c2ccccc2)n1 (stereo not shown) [Example 96]	> 0.8	10 to 50		
O=C1Nc2ccccc2C(c2ccccc2)=NC1Nc1cccn(Cc2ccccc2)c1=O (stereo not shown) [Example 97]	> 0.8	> 50		
O=C1Nc2ccccc2C(c2ccccc2)=NC1Nc1nc2ccc(Cl)cc2o1 (stereo not shown) [Example 99]	> 0.8	10 to 50		
O=C1Nc2ccccc2C(c2ccccc2)=NC1Nc1nc2ccccc2o1 (stereo not shown) [Example 100]	> 0.8	10 to 50		
O=C1Nc2ccccc2C(c2ccccc2)=NC1Nc1nc2ccccc2s1 (stereo not shown) [Example 101]	> 0.8	10 to 50		
O=C1Nc2ccccc2C(c2ccccc2)=NC1Nc1nc2ccc(F)cc2o1 (stereo not shown) [Example 103]	> 0.8	10 to 50		
O=C1Nc2ccccc2C(c2ccccc2)=NC1Nc1nc2cc(F)ccc2o1 (stereo not shown) [Example 104]	> 0.8	10 to 50		
O=C1Nc2ccccc2C(c2ccccc2)=NC1Nc1nc2c(F)cccc2o1 (stereo not shown) [Example 105]	> 0.8	> 50		
Cc1ccc2oc(NC3N=C(c4ccccc4)c4ccccc4NC3=O)nc2c1 (stereo not shown) [Example 106]	> 0.8	< 10		
O=C1Nc2ccccc2C(c2ccccc2)=NC1Nc1nnc(-c2ccc(N3CCOCC3)cc2)o1 (stereo not shown) [Example 124]				< 0.4
O=C1Nc2ccccc2C(c2ccccc2)=NC1Nc1nnc(-c2ccccc2N2CCOCC2)o1 (stereo not shown) [Example 125]				0.4 to 0.8
N#Cc1cnc(-c2nnc(N[C@H]3N=C(c4ccccc4)c4ccccc4NC3=O)o2)c(N2CCOCC2)c1 [Example 160]				< 0.4
